{
  "source": "patent US9192560B2",
  "about": "“Stable composition comprising an anti-ageing compound and a solvent” (CHANEL PARFUMS BEAUTE, priority 2012, dated 2015)",
  "key": {"[1]": {"assay": "Study of olfactory stability of Base with odor absorber", "procedure": "A Base composition as follows was prepared. In this composition, octocrylene is used as diacetylresveratryl thioctate-stabilizing solvent.\n0.6% of each candidate odor absorber was added to one of the base compositions above and the olfactory stability was tested at three temperatures (ambient temperature, 5° C. and 45° C.) and at the following times: • at the beginning (to), • 1 month (1M), • 2 months (2M) and • 3 months (3M)."}, "[2]": {"assay": "Stability of diacetylresveratryl thioctate in the formulation with odor absorber", "type": "physicochemical", "conditions": "0.6% odor absorber in Base (0.10% diacetylresveratryl thioctate), two months", "procedure": "A diacetylresveratryl thioctate stability test was carried out for the odor absorbers retained in Example 3, according to the following protocol, for the purpose of confirming the compatibility between the solvent and the odor absorber."}, "[3]": {"assay": "Diacetylresveratryl thioctate stabilization test in candidate solvents (solubility at t0 and a day later)", "conditions": "for Solubility 1 D/AT / Solubility t0/AT: diacetylresveratryl thioctate in the named solvent, ambient temperature; for Solubility 1 D/AT: a day later; for Solubility t0/AT: initial; for Stability: stabilization of diacetylresveratryl thioctate by the named solvent", "quoted_text": "The term “stabilization” is intended to mean an absence of crystallization of diacetylresveratryl thioctate after 10 days at 4° C. and six months at AT.\nThe candidate solvents thus chosen are then subjected to the stabilization test. This test consists in comparing the initial solubility (t0) and the solubility a day later (1D) at ambient temperature (AT)."}, "[4]": {"assay": "Resveratrol stabilization test in solvents (comparative example)", "type": "physicochemical", "procedure": "The stabilization of resveratrol by dimethyl isosorbide, ethylhexyl methoxycrylene and octocrylene was evaluated according to the same protocol as Example 1-a, except that the solubility was evaluated on the same day as to (0D)."}, "[5]": {"conditions": "listed as ethylhexyl methoxycrylene"}},
  "note": "Where two headings read alike, the source gives them in different places.",
  "data": [
    {"molecule": "O=C1CC[C@@H](C(=O)[O-])N1.O=C1CC[C@@H](C(=O)[O-])N1.[Cu+2]", "note": "[Copper L-pyrrolidone carboxylate salt]", "values": [
      {"measurement": "olfactory stability 1 M", "setting": "[1]; 0.6% odor absorber in Base, 1 month, identical at AT, 5° C. and 45° C.", "result": "Yes"},
      {"measurement": "olfactory stability 2 M 5° C.", "setting": "[1]; 0.6% odor absorber in Base, 2 months, 5° C.", "result": "Yes"},
      {"measurement": "olfactory stability 2 M 45° C.", "setting": "[1]; 0.6% odor absorber in Base, 2 months, 45° C.", "result": "Yes"},
      {"measurement": "olfactory stability 2 M AT", "setting": "[1]; 0.6% odor absorber in Base, 2 months, ambient temperature", "result": "Yes"},
      {"measurement": "olfactory stability 3 M", "setting": "[1]; 0.6% odor absorber in Base, 3 months, identical at AT, 5° C. and 45° C.", "result": "Yes"},
      {"measurement": "olfactory stability t0", "setting": "[1]; 0.6% odor absorber in Base, identical at AT, 5° C. and 45° C.", "result": "Yes"},
      {"measurement": "olfactory stability, overall conclusion", "setting": "[1]; odor absorber in combination with the Base, up to 3 months", "result": "the most appropriate"},
      {"measurement": "degree of diacetylresveratryl thioctate stabilization 5° C.", "setting": "[2]; 5° C.", "result": 0.1},
      {"measurement": "degree of diacetylresveratryl thioctate stabilization 45° C.", "setting": "[2]; 45° C.", "result": 0.094}
    ]},
    {"molecule": "CO[C@H]1CO[C@H]2[C@@H]1OC[C@H]2OC", "note": "[Dimethyl isosorbide]", "values": [
      {"measurement": "Solubility 1 D/AT", "setting": "[3]", "result": "Clear"},
      {"measurement": "Solubility t0/AT", "setting": "[3]", "result": "Partially soluble"},
      {"measurement": "Solubility t0/AT", "setting": "[3]; listed as dimethyl isosorbide", "result": "partially soluble"},
      {"measurement": "Stability", "setting": "[3]", "result": "Yes"},
      {"measurement": "Solubility t0/AT", "setting": "[4]; resveratrol in the named solvent, initial, ambient temperature", "result": "Partially soluble"},
      {"measurement": "Solubility 0 D/AT", "setting": "[4]; resveratrol in the named solvent, same day, ambient temperature", "result": "Precipitate"},
      {"measurement": "Stability", "setting": "[4]; stabilization of resveratrol by the named solvent", "result": "No"}
    ]},
    {"molecule": "CCCCC(CC)COC(=O)C(C#N)=C(c1ccccc1)c1ccc(OC)cc1", "note": "(stereo not shown) [Ethylhexyl methoxycrylene]", "values": [
      {"measurement": "Solubility 1 D/AT", "setting": "[3]", "result": "Clear"},
      {"measurement": "Solubility t0/AT", "setting": "[3]", "result": "Partially soluble"},
      {"measurement": "Solubility t0/AT", "setting": "[3]; [5]", "result": "partially soluble"},
      {"measurement": "Stability", "setting": "[3]", "result": "Yes"},
      {"measurement": "Stability", "setting": "[3]; [5]", "result": "particularly satisfactory"},
      {"measurement": "Solubility 0 D/AT", "setting": "[4]", "result": "Precipitate"},
      {"measurement": "Solubility t0/AT", "setting": "[4]", "result": "Soluble fraction"},
      {"measurement": "Stability", "setting": "[4]", "result": "No"}
    ]},
    {"molecule": "CCCCC(CC)COC(=O)C(C#N)=C(c1ccccc1)c1ccccc1", "note": "(stereo not shown) [Octocrylene]", "values": [
      {"measurement": "Solubility 0 D/AT", "setting": "[4]", "result": "Precipitate"},
      {"measurement": "Solubility t0/AT", "setting": "[4]", "result": "Soluble fraction"},
      {"measurement": "Stability", "setting": "[4]", "result": "No"}
    ]},
    {"molecule": "CCCCCCCCCCC(CO)CCCCCCCC", "note": "(stereo not shown) [Octyldodecanol]", "values": [
      {"measurement": "Solubility 1 D/AT", "setting": "[3]", "result": "Precipitate"},
      {"measurement": "Solubility t0/AT", "setting": "[3]", "result": "Insoluble"},
      {"measurement": "stability of diacetylresveratryl thioctate solubilized in a conventional solvent", "setting": "[3]; general observation of the applicant", "result": "recrystallizes"},
      {"measurement": "Stability", "setting": "[3]", "result": "No"}
    ]},
    {"molecule": "O=C(Oc1ccccc1)c1ccccc1", "note": "[Phenyl benzoate]", "values": [
      {"measurement": "Solubility 1 D/AT", "setting": "[3]", "result": "Clear"},
      {"measurement": "Solubility t0/AT", "setting": "[3]", "result": "Partially soluble"},
      {"measurement": "Solubility t0/AT", "setting": "[3]; listed as phenyl benzoate", "result": "partially soluble"},
      {"measurement": "Stability", "setting": "[3]", "result": "Yes"}
    ]},
    {"molecule": "CCCCCCCCOC(=O)c1ccc(C(=O)OCCCCCCCC)c(C(=O)OCCCCCCCC)c1", "note": "[Trioctyl trimellitate]", "values": [
      {"measurement": "Solubility 1 D/AT", "setting": "[3]", "result": "Clear"},
      {"measurement": "Solubility t0/AT", "setting": "[3]", "result": "Partially soluble"},
      {"measurement": "Solubility t0/AT", "setting": "[3]; listed as trioctyl trimellitate", "result": "partially soluble"},
      {"measurement": "Stability", "setting": "[3]", "result": "Yes"}
    ]},
    {"molecule": "Kaolin", "values": [
      {"measurement": "olfactory stability t0", "setting": "[1]", "result": "Yes"}
    ]}
  ]
}
